From patent US12358896B2, “LRRK2 inhibitors and methods of making and using thereof” (DENALI THERAPEUTICS INC., priority 2019, dated 2025)

Experiments:
LRRK2 G2019S enzyme = LRRK2 G2019S enzyme (Homo sapiens, UniProt Q5S007, G2019S); assay: LRRK2 G2019S TR-FRET biochemical assay (Biological Example 1); conditions: 134 μM ATP, 5 nM LRRK2, LRRKtide substrate
Description: • LRRK2 G2019S enzyme • Substrate (LRRKtide) • ATP • TR-FRET dilution buffer • pLRRKtide antibody • 384-well assay plate • DMSO Enzyme Reaction Conditions • 50 mM Tris pH 7.5, 10 mM MgCl2, 1 mM EGTA, 0.01% Brij-35, 2 mM DTT • 5 nM LRRK2 • 134 μM ATP • 60 minute reaction time • 23° C. reaction temperature • 10 μL total reaction volume Detection Reaction Conditions • 1×TR-FRET dilution buffer • 10 mM EDTA • 2 nM antibody • 23° C. reaction temperature • 10 μL total reaction volume
Compounds are prepared by initially diluting to 1 mM with DMSO. 35 μL of reference compound solution, 35 μL of test compound solution, and 35 μL HPE are successively added to the source plate (384-well assay plate, Labcyte). The plates are centrifuged at 2500 rpm for 1 minute and sealed in foil. POD is used to perform a 3.162 fold serial dilution and 100 nL of reference compound solution, test compound solution, HPE and ZPE are transferred to assay plates. The assay plate is centrifuged at 2500 rpm for 1 minute, and sealed with foil.
To perform the enzyme reaction, 5 μL of LRRKtide substrate and kinase mixture in assay buffer is added to all wells of the assay plate. The plate is centrifuged to concentrate the mixture at the bottom of the wells. The assay plate is incubated at 23° C. for 20 minutes. Following incubation, 5 μL of 2×ATP in assay buffer is added to each well, and plates are centrifuged to concentrate the mixture at the bottom of the wells. The plate is incubated at 23° C. for 60 minutes.
To perform the detection of the reaction, EDTA completely mixed in TR-FRET dilution buffer is added to antibody reagent. 10 μL of detection reagent is added to all wells of each well of the assay plate and the plate is centrifuged to concentrate the mixture at the bottom of the wells. The plate is then incubated at 23° C. for 60 minutes. Plates are read on Perkin Elmer Envision 2104 instrument in TR-FRET mode using a 340 nm excitation filter, 520 nm fluorescence emission filter, and 490 or 495 nm terbium emission filter.

[1] = Metabolic stability in human liver microsomes (Biological Example 2); type: in vitro ADME; conditions: hepatic clearance (CLhep) scaled from human liver microsomes, 1 μM, well-stirred model
Description: Metabolic stability of select compounds was evaluated in human liver microsomes (from Corning or XenoTech, LLC) using a 96-well plate assay format. Compounds were incubated at 37° C. at 1 μM final concentration in the microsomal matrix (0.5 mg/mL total protein) in the presence or absence of NADPH cofactor. An NADPH regenerating system, comprised of NADP, MgCl2, isocitric acid, and isocitrate dehydrogenase, was used in the assay. Enzymatic reactions were conducted for 0, 5, 10, 20, 30, or 60 min before termination by addition of acetonitrile containing tolbutamide and labetalol internal standards (100 ng/mL). After shaking for 10 min, plates were subjected to centrifugation (4000 rpm at 4° C.) for 20 min and supernatants mixed 1:3 with HPLC grade water. Samples were analyzed by LC-MS/MS using appropriate MRM transitions for each analyte and internal standard (IS). Analyte/IS peak area ratios were used to determine percent compound remaining at each time point. Intrinsic clearance (Clint; expressed as mL·min^−1·mg^−1) was calculated from the first order elimination constant (k, min^−1) of test article decay and the volume of the incubation. These values were scaled to intrinsic organ clearance (Clint) using human specific scaling factors (48.8 mg microsomal protein per g liver; 25.7 g liver per kg body weight). Organ Clint was subsequently converted to hepatic clearance, HLM, (CLhep, mL·min-1·kg-1) using the well-stirred model of hepatic elimination, where Qh is human hepatic blood flow (20.7 mL·min-1·kg-1).
CLhep is the projected human clearance in the liver based on the above in vitro assay. A lower value is indicative of less compound being removed by the liver.

[2] = target: T1, FLAG-tagged human LRRK2 with G2019S mutation (Homo sapiens, UniProt Q5S007, G2019S); assay: Inhibition of pSer935 in HEK293 cells with expressed G2019S LRRK2 (Biological Example 4); type: cell-based; conditions: transfected 293T cells, 90 minutes compound treatment, MSD readout; read-out: HEK293T LRRK2 G2019S pS935
T1 construct: expressed in transfected cells; host or cells: HEK293 / 293T cells, transient transfection with pCMV-FLAG-G2019S
Description: In this assay, inhibition of phosphorylation of LRRK2 at residue serine 935 (pS935) by test compound was determined in HEK293 cells.
HEK293 cells were first transiently transfected with a plasmid harboring FLAG-tagged human LRRK2 cDNA with G2019S mutation (p.G2019S) under the control of CMV promoter for robust overexpression. The levels of phosphorylated Ser935 in G2019S expressing cells with or without compound treatment were measured by MSD using an anti-FLAG capture antibody and a phosho-specific anti-LRRK2 pS935 monoclonal detection antibody. The IC50 was determined by fitting a 10-point dose response data in duplicate with four parameter non-linear regression curve.
(Day 1) 293T cell seeding: 293T cells were seeded (1.4×10^6/well) into each well of a 6-well plate. After two days in culture, the cell number can grow into 5×10^6/well, so N+1 wells were seeded (enough for N 96 well assay plates).
(Day 2) 293T cell transfection: 5 μL of pCMV-FLAG-G2019S or pCMV-FLAG-WT LRRK2 (0.5 μg/μL) was added into 145 μL of DMEM medium, and mixed thoroughly by pipette up and down several times. 15 μL of SuperFect Transfection Reagent was added into samples, mixed thoroughly by pipetting up and down several times, and allowed to equilibrate at room temperature for 5-10 minutes. 0.5 mL of pre-warmed cell culture medium was added into samples, and mixed thoroughly by pipetting up and down several times. 650 μL of the mixture was added dropwise into each well of the 6 well plate, the plate was swirled to mix thoroughly, and incubated in a 37° C. incubator with a humidified atmosphere of 5% CO2 for 20-24 hours.
(Day 3) 293T cells seed into 96 well plates: Cells were harvested and resuspended in cell culture medium at 0.96×10^6 cells/mL density. 50 μL/well cells were plated onto 96-well cell culture plate (48,000 cells/well), and the plates were incubated in a 37° C. incubator with a humidified atmosphere of 5% CO2 for 20-24 hours.
(Day 4) Inhibitor Treatment and Cell Lysis: The compound destination plates were thawed at room temperature and centrifuged at 2000 rpm. 55 μL cell culture medium was added into compound destination plate, and the plate was warmed at 37° C.
50 μL of cell culture medium containing compounds was transferred into cell culture plate. Plates were incubated in a 37° C. incubator with a humidified atmosphere of 5% CO2 for 90 minutes, after which all of compound-containing medium was completely aspirated manually with 300 μL pipette. 100 μL/well of Lysis Buffer was added and the plates sealed, shaken at 4° C. for 30 minutes, and stored at −20° C. until usage.
(Day 5) MSD procedure: 2 μg/25 μL/well of FLAG antibody diluted in PBS was added into the MSD plate, incubated for two hours at room temperature or overnight at 4° C. (in Day 4). 50 μL (3.9 μg/μL) of FLAG antibody plus 2.5 mL PBS, per 96 well plate, or 50 μL (3.9 μg/μL) anti-FLAG antibody plus 5 mL PBS per 384 well plate. The plates were centrifuged at 1000 rpm for 10 seconds and shaken with a plate shaker for 10 seconds.
Anti-FLAG antibody was discarded, and the wells were washed using multidrop, low speed, two times with 300 μL/well of wash buffer for a 96 well plate or three times with 70 μL/well of wash buffer for a 384 well plate. 50 μL/well of block buffer for a 96 well plate, or 25 μL/well of block buffer for a 384 well plate, was added and the plates were incubated for two hours at room temperature. The Block buffer was then discarded and the wells washed two times using multidrop, low speed, with 300 μL/well of wash buffer for a 96 well plate, or three times with 70 μL/well of wash buffer for a 384 well plate.
25 μL of cell lysate was transferred into a 96 well MSD plate, or 12.5 μL of cell lysate into 384 well MSD plate, and the plates were incubated for one hour at room temperature.
Note: The cell lysate should be thawed one hour prior to this step, the plate centrifuged at 1000 rpm for one minute, shaken for 30 seconds, and then unsealed for lysate transfer. […]

Chain of LRRK2 G2019S enzyme (Q5S007 whole entry G2019S): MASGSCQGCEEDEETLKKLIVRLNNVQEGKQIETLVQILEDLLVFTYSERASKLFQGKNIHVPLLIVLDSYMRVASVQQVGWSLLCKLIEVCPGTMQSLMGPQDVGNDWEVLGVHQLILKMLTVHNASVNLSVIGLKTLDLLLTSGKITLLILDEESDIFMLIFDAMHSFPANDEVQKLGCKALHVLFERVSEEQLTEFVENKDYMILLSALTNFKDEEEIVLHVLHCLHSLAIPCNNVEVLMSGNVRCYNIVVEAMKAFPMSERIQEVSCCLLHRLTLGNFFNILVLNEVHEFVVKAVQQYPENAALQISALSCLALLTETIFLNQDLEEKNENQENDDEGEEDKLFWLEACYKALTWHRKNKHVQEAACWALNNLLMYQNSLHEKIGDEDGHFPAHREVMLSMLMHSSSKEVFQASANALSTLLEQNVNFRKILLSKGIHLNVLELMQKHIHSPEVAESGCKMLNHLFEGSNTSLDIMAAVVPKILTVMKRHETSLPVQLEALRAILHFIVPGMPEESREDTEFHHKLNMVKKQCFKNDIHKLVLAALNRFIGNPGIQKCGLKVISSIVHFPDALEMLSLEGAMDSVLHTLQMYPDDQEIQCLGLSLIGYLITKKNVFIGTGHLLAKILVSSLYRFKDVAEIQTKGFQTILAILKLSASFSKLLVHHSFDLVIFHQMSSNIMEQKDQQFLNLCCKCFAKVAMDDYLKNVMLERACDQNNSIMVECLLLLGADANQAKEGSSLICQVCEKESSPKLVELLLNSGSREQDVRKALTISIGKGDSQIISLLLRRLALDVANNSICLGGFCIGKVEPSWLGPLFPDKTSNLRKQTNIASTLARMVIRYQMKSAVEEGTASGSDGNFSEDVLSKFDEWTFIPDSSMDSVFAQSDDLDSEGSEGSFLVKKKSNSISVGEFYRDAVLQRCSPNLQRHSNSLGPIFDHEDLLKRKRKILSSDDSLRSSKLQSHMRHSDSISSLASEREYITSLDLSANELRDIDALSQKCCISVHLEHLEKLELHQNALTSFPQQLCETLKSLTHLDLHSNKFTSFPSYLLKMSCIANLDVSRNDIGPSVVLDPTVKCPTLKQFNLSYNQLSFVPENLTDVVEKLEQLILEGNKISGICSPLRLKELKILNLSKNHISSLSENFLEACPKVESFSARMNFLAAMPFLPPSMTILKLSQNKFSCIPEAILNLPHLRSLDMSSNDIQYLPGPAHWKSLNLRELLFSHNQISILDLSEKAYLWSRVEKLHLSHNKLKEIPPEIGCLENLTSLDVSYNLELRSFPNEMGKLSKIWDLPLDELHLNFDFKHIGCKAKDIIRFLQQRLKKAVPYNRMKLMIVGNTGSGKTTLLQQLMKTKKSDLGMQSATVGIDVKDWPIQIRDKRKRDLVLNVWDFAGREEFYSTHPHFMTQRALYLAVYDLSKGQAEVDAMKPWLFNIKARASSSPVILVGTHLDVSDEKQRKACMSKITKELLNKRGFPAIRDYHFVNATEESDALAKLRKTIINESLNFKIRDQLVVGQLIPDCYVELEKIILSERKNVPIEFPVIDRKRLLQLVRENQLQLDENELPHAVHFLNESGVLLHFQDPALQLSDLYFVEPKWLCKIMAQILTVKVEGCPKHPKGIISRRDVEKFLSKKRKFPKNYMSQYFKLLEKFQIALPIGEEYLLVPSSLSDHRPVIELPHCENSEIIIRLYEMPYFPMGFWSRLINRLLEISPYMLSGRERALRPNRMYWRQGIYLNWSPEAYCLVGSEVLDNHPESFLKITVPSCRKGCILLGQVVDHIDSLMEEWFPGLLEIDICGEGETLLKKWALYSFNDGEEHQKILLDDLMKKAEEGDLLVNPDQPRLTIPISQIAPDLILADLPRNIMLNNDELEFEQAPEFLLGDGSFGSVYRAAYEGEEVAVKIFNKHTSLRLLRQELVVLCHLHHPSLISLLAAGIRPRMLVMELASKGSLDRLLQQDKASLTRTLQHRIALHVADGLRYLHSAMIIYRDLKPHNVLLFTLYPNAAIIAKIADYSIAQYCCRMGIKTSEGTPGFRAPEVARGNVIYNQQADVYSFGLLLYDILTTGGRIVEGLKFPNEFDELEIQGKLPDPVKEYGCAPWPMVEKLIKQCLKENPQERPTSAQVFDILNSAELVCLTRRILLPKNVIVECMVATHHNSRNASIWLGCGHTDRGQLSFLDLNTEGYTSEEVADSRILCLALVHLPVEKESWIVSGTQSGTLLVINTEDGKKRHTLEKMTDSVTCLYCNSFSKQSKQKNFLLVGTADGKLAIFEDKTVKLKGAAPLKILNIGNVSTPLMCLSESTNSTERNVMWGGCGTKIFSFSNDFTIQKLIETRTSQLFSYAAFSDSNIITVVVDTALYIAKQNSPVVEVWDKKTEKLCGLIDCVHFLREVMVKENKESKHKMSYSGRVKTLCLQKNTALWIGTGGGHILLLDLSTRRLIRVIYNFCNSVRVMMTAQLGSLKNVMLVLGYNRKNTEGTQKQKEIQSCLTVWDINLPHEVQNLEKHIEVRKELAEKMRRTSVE
T1 sequence (Q5S007 whole entry G2019S): as above

## Cc1nn(C2C[C@@]2(C)C(N)=O)cc1Nc1ncc(C(F)(F)F)c(NC2(C)CC2)n1 (single isomer, unassigned) [Example 1, (1,2-cis)-1-methyl-2-(3-methyl-4-((4-((1-methylcyclopropyl)amino)-5-(trifluoromethyl)pyrimidin-2-yl)amino)-1H-pyrazol-1-yl)cyclopropanecarboxamide]
LRRK2 G2019S enzyme
  IC50: 1.03 nM
[1]
  HLM Avg: 6.4 mL/min/kg
[2]
  IC50: 1.79 nM

## CNc1nc(Nc2cn([C@@H]3C[C@@H]3C(N)=O)nc2C2CC2)ncc1C(F)(F)F (single isomer, unassigned) [Example 2, (1,2-cis)-2-(3-cyclopropyl-4-((4-(methylamino)-5-(trifluoromethyl)pyrimidin-2-yl)amino)-1H-pyrazol-1-yl)cyclopropanecarboxamide]
LRRK2 G2019S enzyme
  IC50: 2.8 nM
[2]
  IC50: 3.06 nM

## CCNc1nc(Nc2cn(C3C[C@@]3(C)C(N)=O)nc2C)ncc1Br (single isomer, unassigned) [Example 3, (1,2-cis)-2-(4-((5-bromo-4-(ethylamino)pyrimidin-2-yl)amino)-3-methyl-1H-pyrazol-1-yl)-1-methylcyclopropanecarboxamide]
LRRK2 G2019S enzyme
  IC50: 2.28 nM
[2]
  IC50: 10.5 nM

## Cc1nn(C2C[C@]2(C)C(N)=O)cc1Nc1ncc(C(F)(F)F)c(NC2(C)CC2)n1 (single isomer, unassigned) [Example 4, (1,2-cis)-1-methyl-2-(3-methyl-4-((4-((1-methylcyclopropyl)amino)-5-(trifluoromethyl)pyrimidin-2-yl)amino)-1H-pyrazol-1-yl)cyclopropanecarboxamide]
LRRK2 G2019S enzyme
  IC50: 1.49 nM
[1]
  HLM Avg: 8.9 mL/min/kg
[2]
  IC50: 3 nM

## CCNc1nc(Nc2cn([C@@H]3C[C@]3(C)C(N)=O)nc2C2CC2)ncc1C(F)(F)F (single isomer, unassigned) [Example 5, (1,2-cis)-2-(3-cyclopropyl-4-((4-(ethylamino)-5-(trifluoromethyl)pyrimidin-2-yl)amino)-1H-pyrazol-1-yl)-1-methylcyclopropanecarboxamide]
LRRK2 G2019S enzyme
  IC50: 0.92 nM
[1]
  HLM Avg: 11 mL/min/kg
[2]
  IC50: 5.12 nM

## Cc1nn(C2C[C@]2(C)C(N)=O)cc1Nc1ncc(C(F)(F)F)c(NC2CC2)n1 (single isomer, unassigned) [Example 6, (1,2-cis)-2-(4-((4-(cyclopropylamino)-5-(trifluoromethyl)pyrimidin-2-yl)amino)-3-methyl-1H-pyrazol-1-yl)-1-methylcyclopropanecarboxamide]
LRRK2 G2019S enzyme
  IC50: 1.23 nM
[2]
  IC50: 5.79 nM

## CCNc1nc(Nc2cn([C@@H]3C[C@@H]3C(N)=O)nc2C2CC2)ncc1C(F)(F)F (single isomer, unassigned) [Example 8, (1,2-cis)-2-(3-cyclopropyl-4-((4-(ethylamino)-5-(trifluoromethyl)pyrimidin-2-yl)amino)-1H-pyrazol-1-yl)cyclopropanecarboxamide]
LRRK2 G2019S enzyme
  IC50: 1.11 nM
[2]
  IC50: 4.94 nM
